Results as given in ChEMBL document CHEMBL1134990, “Trifluoromethyl ketones as inhibitors of histone deacetylase” (Bioorg Med Chem Lett, 2002).

Legend:
[1] = tested on: HT-1080; test: Anti-proliferative activity against human tumor cell line HT1080; format: functional, cell-based
[2] = tested on: MDA-MB-435; test: Anti-proliferative activity against human tumor cell line MDA-435; format: functional, cell-based
[3] = target: T1, Histone deacetylase (HDAC1 and HDAC2) (Homo sapiens, UniProt Q13547+Q92769); test: Inhibition of human histone deacetylase (mixture of HDAC1 and HDAC2) prepared from K562 erythroleukemia cells.; format: cell-based
T1 sequence (Q13547 whole entry, looked up): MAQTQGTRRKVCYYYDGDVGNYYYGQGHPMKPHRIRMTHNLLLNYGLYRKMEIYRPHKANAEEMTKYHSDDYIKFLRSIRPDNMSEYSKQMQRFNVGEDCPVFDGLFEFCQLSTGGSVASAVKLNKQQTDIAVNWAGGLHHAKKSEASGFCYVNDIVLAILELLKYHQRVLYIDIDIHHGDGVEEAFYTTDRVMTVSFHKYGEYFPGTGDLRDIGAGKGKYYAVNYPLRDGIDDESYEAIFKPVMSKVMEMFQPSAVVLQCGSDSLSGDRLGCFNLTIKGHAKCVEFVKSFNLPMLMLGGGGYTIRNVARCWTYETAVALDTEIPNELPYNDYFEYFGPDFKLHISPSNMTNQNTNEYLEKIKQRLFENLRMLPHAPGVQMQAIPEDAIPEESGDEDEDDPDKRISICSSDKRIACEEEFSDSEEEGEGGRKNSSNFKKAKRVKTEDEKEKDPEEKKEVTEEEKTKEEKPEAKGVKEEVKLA
T1 sequence (Q92769 whole entry, looked up): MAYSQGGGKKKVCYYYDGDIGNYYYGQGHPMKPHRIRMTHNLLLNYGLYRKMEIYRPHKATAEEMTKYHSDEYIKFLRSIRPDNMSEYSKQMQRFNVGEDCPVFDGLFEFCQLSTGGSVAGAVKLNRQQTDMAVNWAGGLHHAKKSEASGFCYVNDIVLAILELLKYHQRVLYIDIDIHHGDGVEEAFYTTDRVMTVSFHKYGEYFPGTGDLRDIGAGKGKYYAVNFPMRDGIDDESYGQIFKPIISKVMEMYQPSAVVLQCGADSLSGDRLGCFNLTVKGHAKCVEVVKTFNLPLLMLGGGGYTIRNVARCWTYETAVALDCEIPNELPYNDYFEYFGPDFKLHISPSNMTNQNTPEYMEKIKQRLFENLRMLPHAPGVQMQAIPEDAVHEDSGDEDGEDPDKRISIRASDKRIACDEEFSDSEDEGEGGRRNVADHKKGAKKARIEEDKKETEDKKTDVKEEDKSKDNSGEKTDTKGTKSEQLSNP

[4] = target: T1, Histone deacetylase (HDAC1 and HDAC2); test: Inhibition of human histone deacetylase (mixture of HDAC1 and HDAC2) prepared from K562 erythroleukemia cells; format: cell-based; settings: concentration not given here

IC50 [1] [µM] | IC50 [2] [µM] | IC50 [3] [µM] | inhibition [4] [%] | SMILES
2.2 | 15 |  |  | O=C(CCCCCCC(=O)C(F)(F)F)Nc1ccccc1
16 | 23 | 0.38 |  | O=C(CCCCCCC(=O)C(F)(F)F)Nc1cccc(-c2ccccc2)c1
 |  |  | 72 | O=C(CCCCCCCOc1ccc(-c2ccccc2)cc1)C(F)(F)F
